Where two headings read alike, the source gives them in different places.
Experiments:
[1] = system: SW620 human colorectal cancer cells; assay: MTT based cell viability assay: potentiation of the growth inhibiting activity of MMS
Procedure: Briefly, SW620 human colorectal cancer cells were used to measure the cell growth inhibiting activity of DNA alkylating anticancer drug MMS. […] SW620 cells were grown and maintained in RPMI1640 (Gibco) medium supplemented with 10% FBS (Hyclone). In the first day of experiment, 4000 cells were seeded to each well of a 96-well cell culture plate and incubated at 37° C. and 5% CO2 in a cell culture incubator overnight. In the next day, the cell culture medium was removed. […] The serial dilutions of the reference compounds and the compounds to be tested were made with a 1:3 and 1:10 fashion in DMSO. The 10-fold concentrated solutions of these compounds were made by mixing 10 μl of the serial dilutions in DMSO with 90 μl fresh medium. The final concentration of DMSO in the medium was 1%. The cells were incubated at 37° C. in 5% CO2 cell culture incubator for additional 5 days (120 hours). Afterwards, the 96-well cell culture plate was taken out and 20 μl of MTT solution was added to each well and incubated at 37° C. for 4 h. The medium was removed and 100 μl DMSO was added to each well. The 96-well cell culture plates were shaked adequately for 10 min and read in a Varioskan Flash plate reader (Thermo Fisher Scientific) at 520 and 690 nm. The data were analyzed by Prism 5 software (GraphPad). The obtained 520 nm absorbance readings subtracting corresponding 690 nm reading were analyzed and plotted against the Log scale of the compound concentrations.

[2] = system: Human breast cancer cell line T47D; assay: Cell based caspase-3 activity assay: potentiation of MMS induced apoptosis; details: T47D cells, 11.1 μg/ml MMS, 24 hours, intracellular caspase-3 activity, read-out: EC50 (nM), potentiation of the apoptosis inducing activity of MMS
Text: Determination of the synergistic potentiation effect of 1-(3-(4-(pyrimidin-2-yl)piperazine-1-carbonyl)benzyl)quinazoline-2,4(1H,3H)-dione and analogs on MMS induced apoptosis using a cell based caspase-3 activity assay
Human breast cancer cell line T47D was used to determine the potentiation effect of PARP inhibitors on the apoptosis inducing activity of DNA damaging anticancer drugs such as MMS. Intracellular caspase-3 activity was used to measure cell apoptosis. The dose response effect of MMS to induce intracellular caspase activity was carefully titrated and the concentration that only induces a minimal level of caspase activity was used to test the potentiation effect of PARP inhibitors. Briefly, T47D cells were grown in DMEM/F12 cell culture medium (Hyclone) supplemented with 0.2 U/ml insulin (Genview) and 10% FBS (Hyclone). A day before experiment, 20000 of T47D cells were seeded to each well of a 96-well cell culture plate and maintained at 37° C. and 5% CO2 in a cell culture incubator overnight. On the day of experiment, cell culture medium was removed. One hundred and eighty μl of fresh medium containing 11.1 μg/ml MMS was added to each well and followed by 20 μl medium containing 10 folds of the concentrations of experimental drugs or reference compounds (ADZ2281 and ABT-888). The serial dilutions of the compounds to be tested and the reference compounds were made in a 1:3 and 1:10 fashion in DMSO. The 10-fold compound solutions were made by mixing 10 μl DMSO serial dilution solutions with 90 μl fresh growth medium. Twenty four hours later, the cells in the 96-well plates were centrifuged at 1000 g for 5 min and the supernatants were removed. Fifty μl lysis buffer (10 mM Tris, pH7.5, 0.1M NaCl, 1 mM EDTA, 0.01% Triton X-100) was added to each well and the plates were shaked horizontally for 30 min at 4° C. After centrifugation at 1000 g at 4° C. for 10 min, 20 μl of supernatant was transferred from each well to a corresponding well in a 384-well black plate. Twenty μl of buffer (20 mM PIPES, pH7.4, 4 mM EDTA and 0.2% CHAPS) containing 20 μM fluorescent caspase-3 substrate ((Ac-DEVD)2-R110, AnaSpec Cat #60304-5) was added to each well afterwards. The plates were shaked to uniformly mix the wells and incubated at 37° C. for 3 h. The fluorescence intensity was measured using the following wavelength: ex: 496 nm, em: 520 nm using a fluorescence plate reader (Varioskan Flash, Thermo Fisher Scientific). The caspase-3 activity induced by the compounds was expressed as a relative fluorescence unit (RFU). The obtained fluorescence readings were analyzed using a commercial graphic software (GraphPad Prism 5) and plotted against the Log value of the compound concentrations. The EC50 values were obtained by fitting the data points with the equation of Y (fluorescence reading)=minimal fluorescence reading+(maximal fluorescence reading−minimal fluorescence reading)/(1+10^(Log EC50−Log C)), where C is the concentration of the testing compound.
The synergistic potentiation effect of compounds on MMS induced apoptosis in T47D cells is expressed as EC50 values and listed in Table 2.

[3] = Homo sapiens, SW-620, 120 h, read-out: IC50 (nM), potentiation of the growth inhibiting activity of MMS, SW620 cells, 1.7 μg/ml MMS, 5 days (120 hours), MTT

Row | IC50 [1, 3] | EC50 ([2]; Homo sapiens, T47D, 24 h) | IC50 ([1]; read-out: IC50 (nM), potentiation of the growth inhibiting activity of MMS, SW620 cells, 1.7 μg/ml MMS, 5 days (120 hours), MTT) | EC50 [2] | Structure (SMILES)
1 | 103 nM | 294 nM | – | – | COc1ccc2c(=O)[nH]c(=O)n(Cc3cccc(C(=O)N4CCN(c5ncccn5)CC4)c3)c2c1 [Example 209, 7-Methoxy-1-(3-(4-(pyrimidin-2-yl)piperazine-1-carbonyl)benzyl)quinazoline-2,4(1H,3H)-dione]
2 | 1390 nM | 743 nM | – | – | O=C(c1cc(Cn2c(=O)[nH]c(=O)c3c(F)cccc32)ccc1Br)N1CCN(c2ncccn2)CC1 [Example 215, 1-(4-Bromo-3-(4-(pyrimidin-2-yl)piperazine-1-carbonyl)benzyl)-5-fluoroquinazoline-2,4(1H,3H)-dione]
3 | 2600 nM | 112 nM | – | – | O=C(c1cccc(Cn2c(=O)[nH]c(=O)c3ccccc32)c1)N1CCC(c2noc3cc(F)ccc23)CC1 [Example 31, 1-(3-(4-(6-Fluorobenzo[d]isoxazol-3-yl)piperidine-1-carbonyl)benzyl)quinazoline-2,4(1H,3H)-dione]
4 | 7030 nM | 2520 nM | – | – | O=C(c1cccc(Cn2c(=O)[nH]c(=O)c3ccccc32)c1)N1CCN(c2ccc3nncn3n2)CC1 [Example 6, 1-(3-(4-([1,2,4]Triazolo[4,3-b]pyridazin-6-yl)piperazine-1-carbonyl)benzyl)quinazoline-2,4(1H,3H)-dione]
5 | 72 nM | 32 nM | – | – | O=C(c1ccc(F)c(Cn2c(=O)[nH]c(=O)c3c(Cl)cccc32)c1)N1CCN(c2ncccn2)CC1 [Example 110, 5-Chloro-1-(6-fluoro-3-(4-(pyrimidin-2-yl)piperazine-1-carbonyl)benzyl)quinazoline-2,4(1H,3H)-dione]
6 | 269 nM | 112 nM | – | – | O=C(c1cccc(Cn2c(=O)[nH]c(=O)c3ccc(F)cc32)c1)N1CCN(c2ncccn2)CC1 [Example 78, 7-Fluoro-1-(3-(4-(pyrimidin-2-yl)piperazine-1-carbonyl)benzyl)quinazoline-2,4(1H,3H)-dione]
7 | 12 nM | 7.4 nM | – | – | O=C(c1cccc(Cn2c(=O)[nH]c(=O)c3cc(F)ccc32)c1)N1CCN(C(=O)C2CCC2)CC1 [Example 179, 1-(3-(4-(Cyclobutylcarbonyl)piperazine-1-carbonyl)benzyl)-6-fluoroquinazoline-2,4(1H,3H)-dione]
8 | 105 nM | 217 nM | – | – | O=C(c1cc(Cn2c(=O)[nH]c(=O)c3c(Cl)cccc32)ccc1F)N1CCN(c2ccccn2)CC1 [Example 106, 5-Chloro-1-(4-fluoro-3-(4-(pyridin-2-yl)piperazine-1-carbonyl)benzyl)quinazoline-2,4(1H,3H)-dione]
9 | 177 nM | 51 nM | – | – | O=C(c1cc(F)cc(Cn2c(=O)[nH]c(=O)c3ccccc32)c1)N1CCN(C(=O)C2CCCC2)CC1 [Example 64, 1-(3-(4-(Cyclopentylcarbonyl)piperazine-1-carbonyl)-5-fluorobenzyl)quinazoline-2,4(1H,3H)-dione]
10 | 5.7 nM | 5 nM | – | – | O=C(c1ccc(F)c(Cn2c(=O)[nH]c(=O)c3cc(Cl)ccc32)c1)N1CCN(C(=O)C2CCC2)CC1 [Example 167, 6-Chloro-1-(3-(4-(cyclobutylcarbonyl)piperazine-1-carbonyl)-6-fluorobenzyl)quinazoline-2,4(1H,3H)-dione]
11 | > 10000 nM | > 10000 nM | – | – | O=C(O)c1cc(Cn2c(=O)[nH]c(=O)c3ccccc32)ccc1F [Example 22, 1-(3-Carboxy-4-fluorobenzyl)quinazoline-2,4(1H,3H)-dione]
12 | 13 nM | 40 nM | – | – | COc1cccc2c(=O)[nH]c(=O)n(Cc3cccc(C(=O)N4CCN(c5ncccn5)CC4)c3)c12 [Example 227, 8-Methoxy-1-(3-(4-(pyrimidin-2-yl)piperazine-1-carbonyl)benzyl)quinazoline-2,4(1H,3H)-dione]
13 | > 10000 nM | 5890 nM | – | – | O=C(c1cccc(Cn2c(=O)[nH]c(=O)c3ccccc32)c1)N1CCC(N2CCCCC2)CC1 [Example 28, 1-(3-(4-(Piperidin-1-yl)piperidine-1-carbonyl)benzyl)quinazoline-2,4(1H,3H)-dione]
14 | > 10000 nM | > 10000 nM | – | – | O=C(NCc1cccc(Cl)c1)c1cc(Cn2c(=O)[nH]c(=O)c3c(F)cccc32)ccc1F [Example 201, 1-(3-(3-Chlorobenzylcarbamoyl)-4-fluorobenzyl)-5-fluoroquinazoline-2,4(1H,3H)-dione]
15 | – | – | > 10000 nM | > 10000 nM | O=C(c1cccc(Cn2c(=O)[nH]c(=O)c3cc4c(cc32)OCO4)c1)N1CCN(c2ncccn2)CC1 [Example 216, 6,7-Methylenedioxo-1-(3-(4-(pyrimidin-2-yl)piperazine-1-carbonyl)benzyl)quinazoline-2,4(1H,3H)-dione]
16 | 3.4 nM | 1 nM | – | – | O=C(c1cc(Cn2c(=O)[nH]c(=O)c3cc(Cl)ccc32)ccc1F)N1CCN(C(=O)C2CCC2)CC1 [Example 169, 6-Chloro-1-(3-(4-(cyclobutylcarbonyl)piperazine-1-carbonyl)-4-fluorobenzyl)quinazoline-2,4(1H,3H)-dione]
17 | > 10000 nM | 2110 nM | – | – | O=C(c1cccc(Cn2c(=O)[nH]c(=O)c3ccccc32)c1)N1CCN(CC2CCCC2)CC1 [Example 74, 1-(3-(4-(Cyclopentylmethyl)piperazine-1-carbonyl)benzyl)quinazoline-2,4(1H,3H)-dione]
18 | > 10000 nM | 5020 nM | – | – | CC(=O)N1CCN(C(=O)c2cccc(Cn3c(=O)[nH]c(=O)c4ccccc43)c2)CC1 [Example 17, 1-(3-(4-Acetylpiperazine-1-carbonyl)benzyl)quinazoline-2,4(1H,3H)-dione]
19 | 17 nM | 20 nM | – | – | O=C(c1cccc(Cn2c(=O)[nH]c(=O)c3c(F)cccc32)c1)N1CCN(C(=O)c2cccs2)CC1 [Example 131, 5-Fluoro-1-(3-(4-(thiophene-2-carbonyl)piperazine-1-carbonyl)benzyl)quinazoline-2,4(1H,3H)-dione]
20 | > 10000 nM | > 10000 nM | – | – | O=C(c1cccc(Cn2c(=O)[nH]c(=O)c3ccccc32)c1)N1CCN(c2ccncc2)CC1 [Example 29, 1-(3-(4-(Pyridin-4-yl)piperazine-1-carbonyl)benzyl)quinazoline-2,4(1H,3H)-dione]
21 | 5270 nM | 2660 nM | – | – | CCN1CCN(C(=O)c2cccc(Cn3c(=O)[nH]c(=O)c4ccccc43)c2)CC1 [Example 7, 1-(3-(4-Ethylpiperazine-1-carbonyl)benzyl)quinazoline-2,4(1H,3H)-dione]
22 | 4.5 nM | 4.9 nM | – | – | O=C(c1cccs1)N1CCN(C(=O)c2cc(Cn3c(=O)[nH]c(=O)c4cc(Cl)ccc43)ccc2F)CC1 [Example 121, 6-Chloro-1-(4-fluoro-3-(4-(thiophene-2-carbonyl)piperazine-1-carbonyl)benzyl)quinazoline-2,4(1H,3H)-dione]
23 | 87 nM | 26 nM | – | – | O=C(c1cccc(Cn2c(=O)[nH]c(=O)c3c(Cl)cccc32)c1)N1CCN(C(=O)C2CCCCC2)CC1 [Example 102, 5-Chloro-1-(3-(4-(cyclohexylcarbonyl)piperazine-1-carbonyl)benzyl)quinazoline-2,4(1H,3H)-dione]
24 | 86 nM | 27 nM | – | – | O=C(c1cccc(Cn2c(=O)[nH]c(=O)c3cc(Br)ccc32)c1)N1CCN(C(=O)C2CCCCC2)CC1 [Example 86, 6-Bromo-1-(3-(4-(cyclohexylcarbonyl)piperazine-1-carbonyl)benzyl)quinazoline-2,4(1H,3H)-dione]

— patent publication US9926304B2, “1-(arylmethyl)quinazoline-2,4(1H,3H)-diones as PARP inhibitors and the use thereof” (Impact Therapeutics, Inc., priority 2011, dated 2018)
